Data as given in PubChem BioAssay (NCI).
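Results reflect a 48-hour exposure of cells in 96-well plates to compound at five concentrations. TGI is the concentration that stops growth completely.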

How the values were obtained:
Experiment in all cases: NCI-60 cell line screen, 48 h
NCI-H23 lung = tested on: NCI-H23 lung
SK-MEL-28 melanoma = tested on: SK-MEL-28 melanoma
A498 renal = tested on: A498 renal
BT-549 breast = tested on: BT-549 breast
SK-MEL-5 melanoma = tested on: SK-MEL-5 melanoma
CAKI-1 renal = tested on: CAKI-1 renal
CCRF-CEM leukemia = tested on: CCRF-CEM leukemia
HL-60(TB) leukemia = tested on: HL-60(TB) leukemia
SNB-19 CNS = tested on: SNB-19 CNS
K-562 leukemia = tested on: K-562 leukemia
NCI-H460 lung = tested on: NCI-H460 lung
SF-539 CNS = tested on: SF-539 CNS
HT29 colon = tested on: HT29 colon
LOX IMVI melanoma = tested on: LOX IMVI melanoma
MDA-MB-435 = tested on: MDA-MB-435
HOP-62 NSCLC = tested on: HOP-62 NSCLC
EKVX NSCLC = tested on: EKVX NSCLC
SW-620 colon = tested on: SW-620 colon
HCT-116 colon = tested on: HCT-116 colon
OVCAR-8 ovarian = tested on: OVCAR-8 ovarian
OVCAR-5 ovarian = tested on: OVCAR-5 ovarian
UACC-257 melanoma = tested on: UACC-257 melanoma
HCC-2998 colon = tested on: HCC-2998 colon
786-0 renal = tested on: 786-0 renal
KM12 colon = tested on: KM12 colon
A549 NSCLC = tested on: A549 NSCLC
COLO 205 colon = tested on: COLO 205 colon
TK-10 renal = tested on: TK-10 renal
SK-MEL-2 melanoma = tested on: SK-MEL-2 melanoma
MALME-3M melanoma = tested on: MALME-3M melanoma
NCI/ADR-RES ovarian = tested on: NCI/ADR-RES ovarian
SR leukemia = tested on: SR leukemia
SNB-75 CNS = tested on: SNB-75 CNS
SF-268 CNS = tested on: SF-268 CNS
NCI-H522 lung = tested on: NCI-H522 lung
HCT-15 colon = tested on: HCT-15 colon
SF-295 CNS = tested on: SF-295 CNS
MCF7 breast = tested on: MCF7 breast
MOLT-4 leukemia = tested on: MOLT-4 leukemia
SK-OV-3 ovarian = tested on: SK-OV-3 ovarian
HS 578T breast = tested on: HS 578T breast
UO-31 renal = tested on: UO-31 renal
ACHN renal = tested on: ACHN renal
T-47D breast = tested on: T-47D breast
M14 melanoma = tested on: M14 melanoma
OVCAR-4 ovarian = tested on: OVCAR-4 ovarian
U251 CNS = tested on: U251 CNS
MDA-MB-231 breast = tested on: MDA-MB-231 breast
DU-145 prostate = tested on: DU-145 prostate
NCI-H226 lung = tested on: NCI-H226 lung
UACC-62 melanoma = tested on: UACC-62 melanoma
IGROV1 ovarian = tested on: IGROV1 ovarian
SN12C renal = tested on: SN12C renal
RPMI-8226 leukemia = tested on: RPMI-8226 leukemia
OVCAR-3 ovarian = tested on: OVCAR-3 ovarian
PC-3 prostate = tested on: PC-3 prostate
HOP-92 NSCLC = tested on: HOP-92 NSCLC

Compound: CC(=O)Nc1ccc2c(c1)[nH]c(=O)c1cc(Cl)ccc12
- TGI (NCI-H23 lung): > 100 µM
- TGI (SK-MEL-28 melanoma): > 100 µM
- TGI (A498 renal): > 100 µM
- TGI (BT-549 breast): > 100 µM
- TGI (SK-MEL-5 melanoma): > 100 µM
- TGI (CAKI-1 renal): 8.4 µM
- TGI (CCRF-CEM leukemia): 13.4 µM
- TGI (HL-60(TB) leukemia): > 100 µM
- TGI (SNB-19 CNS): > 100 µM
- TGI (K-562 leukemia): > 100 µM
- TGI (NCI-H460 lung): 52.9 µM
- TGI (SF-539 CNS): > 100 µM
- TGI (HT29 colon): 41.5 µM
- TGI (LOX IMVI melanoma): > 100 µM
- TGI (MDA-MB-435): > 100 µM
- TGI (HOP-62 NSCLC): > 100 µM
- TGI (EKVX NSCLC): > 100 µM
- TGI (SW-620 colon): > 100 µM
- TGI (HCT-116 colon): > 100 µM
- TGI (OVCAR-8 ovarian): 64.9 µM
- TGI (OVCAR-5 ovarian): > 100 µM
- TGI (UACC-257 melanoma): 59.5 µM
- TGI (HCC-2998 colon): > 100 µM
- TGI (786-0 renal): > 100 µM
- TGI (KM12 colon): > 100 µM
- TGI (A549 NSCLC): > 100 µM
- TGI (COLO 205 colon): > 100 µM
- TGI (TK-10 renal): 60.4 µM
- TGI (SK-MEL-2 melanoma): > 100 µM
- TGI (MALME-3M melanoma): 46.7 µM
- TGI (NCI/ADR-RES ovarian): > 100 µM
- TGI (SR leukemia): 18.4 µM
- TGI (SNB-75 CNS): > 100 µM
- TGI (SF-268 CNS): > 100 µM
- TGI (NCI-H522 lung): > 100 µM
- TGI (HCT-15 colon): > 100 µM
- TGI (SF-295 CNS): > 100 µM
- TGI (MCF7 breast): 77.7 µM
- TGI (MOLT-4 leukemia): 8.53 µM
- TGI (SK-OV-3 ovarian): > 100 µM
- TGI (HS 578T breast): > 100 µM
- TGI (UO-31 renal): > 100 µM
- TGI (ACHN renal): > 100 µM
- TGI (T-47D breast): > 100 µM
- TGI (M14 melanoma): > 100 µM
- TGI (OVCAR-4 ovarian): > 100 µM
- TGI (U251 CNS): > 100 µM
- TGI (MDA-MB-231 breast): > 100 µM
- TGI (DU-145 prostate): > 100 µM
- TGI (NCI-H226 lung): 90.4 µM
- TGI (UACC-62 melanoma): > 100 µM
- TGI (IGROV1 ovarian): > 100 µM
- TGI (SN12C renal): > 100 µM

Compound: Cc1cc(Br)c(O)c(-c2cscn2)c1
- TGI (NCI-H23 lung): 35.6 µM
- TGI (A498 renal): 76.8 µM
- TGI (BT-549 breast): 24 µM
- TGI (SK-MEL-5 melanoma): 30.5 µM
- TGI (CAKI-1 renal): 62.6 µM
- TGI (CCRF-CEM leukemia): 28.6 µM
- TGI (HL-60(TB) leukemia): 12.7 µM
- TGI (SNB-19 CNS): 31.2 µM
- TGI (K-562 leukemia): 25.2 µM
- TGI (NCI-H460 lung): 49.6 µM
- TGI (SF-539 CNS): 37.3 µM
- TGI (HT29 colon): > 100 µM
- TGI (LOX IMVI melanoma): 23.1 µM
- TGI (MDA-MB-435): 41.9 µM
- TGI (HOP-62 NSCLC): 41.2 µM
- TGI (EKVX NSCLC): 96.1 µM
- TGI (SW-620 colon): 31.5 µM
- TGI (HCT-116 colon): 25.2 µM
- TGI (OVCAR-8 ovarian): 42.1 µM
- TGI (OVCAR-5 ovarian): 36.4 µM
- TGI (HCC-2998 colon): 36.2 µM
- TGI (786-0 renal): 8.39 µM
- TGI (RPMI-8226 leukemia): 20.3 µM
- TGI (A549 NSCLC): 50.4 µM
- TGI (COLO 205 colon): 51.8 µM
- TGI (TK-10 renal): 42 µM
- TGI (SK-MEL-2 melanoma): 35.1 µM
- TGI (MALME-3M melanoma): 43.7 µM
- TGI (NCI/ADR-RES ovarian): 56.9 µM
- TGI (OVCAR-3 ovarian): > 100 µM
- TGI (PC-3 prostate): 27.7 µM
- TGI (HCT-15 colon): 18.4 µM
- TGI (SF-295 CNS): > 100 µM
- TGI (SK-OV-3 ovarian): > 100 µM
- TGI (HS 578T breast): 52.4 µM
- TGI (UO-31 renal): 25.4 µM
- TGI (ACHN renal): 36.6 µM
- TGI (M14 melanoma): 44 µM
- TGI (OVCAR-4 ovarian): 28.7 µM
- TGI (UACC-62 melanoma): 28.2 µM
- TGI (HOP-92 NSCLC): 43.1 µM
- TGI (IGROV1 ovarian): 56.7 µM
- TGI (SN12C renal): 23.6 µM
